Where two headings read alike, the source gives them in different places.
Columns and labels:
[1] = tested on: HBV; test: Determination of HBV DNA from the supernatants of HepAD38 cells (anti-HBV activity); type: cell-based, hepatitis B virus; details: Hepatitis B virus, read-out: Cell Activity (EC50)
Procedure, shortened: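 Supernatant viral DNA was measured by LightCycler qPCR, calibrated with pCH-9/3091 plasmid, 6 days after tetracycline-free HepAD38 cultures received half-log serial compound dilutions; untreated and tetracycline-treated cells served as controls; EC50 was fitted by non-linear regression.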

[2] = molecular target: T1, HBV core protein (UniProt P03146); test: Biochemical capsid assembly assay (fluorescence quenching); design: species or system hepatitis B virus; details: read-out: Assembly Activity (IC50); BODIPY-FL labelled core protein, 300 μM NaCl, read 6 min after start
T1 construct: fused on or other part: BODIPY-FL maleimide label on the C-terminal Cys150
T1 sequence (P03146 whole entry, looked up, the tested form may be a part): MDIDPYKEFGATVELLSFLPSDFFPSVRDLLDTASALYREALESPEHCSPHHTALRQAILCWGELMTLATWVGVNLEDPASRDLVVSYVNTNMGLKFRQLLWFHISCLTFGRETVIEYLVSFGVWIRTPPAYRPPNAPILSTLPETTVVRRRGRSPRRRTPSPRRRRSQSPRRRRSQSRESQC
Protocol: Biochemical Capsid Assembly Assay
The screening for assembly effector activity was done based on a fluorescence quenching assay published by Zlotnick et al. (2007). The C-terminal truncated core protein containing 149 amino acids of the N-terminal assembly domain fused to a unique cysteine residue at position 150 and was expressed in E. coli using the pET expression system (Merck Chemicals, Darmstadt). Purification of core dimer protein was performed using a sequence of size exclusion chromatography steps. In brief, the cell pellet from 1 L BL21 (DE3) Rosetta2 culture expressing the coding sequence of core protein cloned NdeI/XhoI into expression plasmid pET21b was treated for 1 h on ice with a native lysis buffer (Qproteome Bacterial Protein Prep Kit; Qiagen, Hilden). After a centrifugation step the supernatant was precipitated during 2 h stirring on ice with 0.23 g/ml of solid ammonium sulfate. Following further centrifugation the resulting pellet was resolved in buffer A (100 mM Tris, pH 7.5; 100 mM NaCl; 2 mM DTT) and was subsequently loaded onto a buffer A equilibrated CaptoCore 700 column (GE HealthCare, Frankfurt). The column flow through containing the assembled HBV capsid was dialyzed against buffer N (50 mM NaHCO3 pH 9.6; 5 mM DTT) before urea was added to a final concentration of 3M to dissociate the capsid into core dimers for 1.5 h on ice. The protein solution was then loaded onto a 1 L Sephacryl S300 column. After elution with buffer N core dimer containing fractions were identified by SDS-PAGE and subsequently pooled and dialyzed against 50 mM HEPES pH 7.5; […]. To improve the assembly capacity of the purified core dimers a second round of assembly and disassembly starting with the addition of 5 M NaCl and including the size exclusion chromatography steps described above was performed. From the last chromatography step core dimer containing fractions were pooled and stored in aliquots at concentrations between 1.5 to 2.0 mg/ml at −80° C.
Immediately before labelling the core protein was reduced by adding freshly prepared DTT in a final concentration of 20 mM. After 40 min incubation on ice storage buffer and DTT was removed using a Sephadex G-25 column (GE HealthCare, Frankfurt) and 50 mM HEPES, pH 7.5. For labelling 1.6 mg/ml core protein was incubated at 4° C. and darkness overnight with BODIPY-FL maleimide (Invitrogen, Karlsruhe) in a final concentration of 1 mM. After labelling the free dye was removed by an additional desalting step using a Sephadex G-25 column. Labelled core dimers were stored in aliquots at 4° C. In the dimeric state the fluorescence signal of the labelled core protein is high and is quenched during the assembly of the core dimers to high molecular capsid structures. The screening assay was performed in black 384 well microtiter plates in a total assay volume of 10 μl using 50 mM HEPES pH 7.5 and 1.0 to 2.0 μM labelled core protein. Each screening compound was added in 8 different concentrations using a 0.5 log-unit serial dilution starting at a final concentration of 100 μM, 31.6 μM or 10 μM, In any case the DMSO concentration over the entire microtiter plate was 0.5%. The assembly reaction was started by the injection of NaCl to a final concentration of […] which induces the assembly process to approximately 25% of the maximal quenched signal. 6 min after starting the reaction the fluorescence signal was measured using a Clariostar plate reader (BMG Labtech, Ortenberg) with an excitation of 477 nm and an emission of 525 nm. As 100% and 0% assembly control HEPES buffer containing 2.5 M and 0 M NaCl was used. Experiments were performed thrice in triplicates. EC50 values were calculated by non-linear regression analysis using the Graph Pad Prism 6 software (GraphPad Software, La Jolla, USA).

[3] = Cell viability assay (AlamarBlue) in HepAD38 cells; details: human
[4] = 144 h, HBV DNA in HepAD38 supernatant, day 6, qPCR

Structure (SMILES)	EC50 [1, 4] [µM]	IC50 [2] [µM]	CC50 at 6 days [3] [µM]	EC50 ([1]; HePAD38, 144 h) [µM]
CC(C)[C@H](N)C(=O)OCCN(C)C(=O)c1n[nH]c2c1CN(C(=O)c1cc3ccccc3[nH]1)CC2 [Example 48, 2-{1-[5-(1H-indole-2-carbonyl)-1H,4H,5H,6H,7H-pyrazolo[4,3-c]pyridin-3-yl]-N-methylformamido}ethyl (2S)-2-amino-3-methylbutanoate]	< 1	< 5	> 32	
CC(O)c1cc(F)cc2[nH]c(C(=O)N3CCc4[nH]nc(C(=O)N(C)CCO)c4C3)cc12 (stereo not drawn) [Example 49, 5-[6-fluoro-4-(1-hydroxyethyl)-1H-indole-2-carbonyl]-N-(2-hydroxyethyl)-N-methyl-1H,4H,5H,6H,7H-pyrazolo[4,3-c]pyridine-3-carboxamide]	< 100	< 100	> 100	
CC(O)c1cccc2[nH]c(C(=O)N3CCc4[nH]nc(C(=O)N(C)CCO)c4C3)cc12 (stereo not drawn) [Example 50, N-(2-hydroxyethyl)-5-[4-(1-hydroxyethyl)-1H-indole-2-carbonyl]-N-methyl-1H,4H,5H,6H,7H-pyrazolo[4,3-c]pyridine-3-carboxamide]	< 100	< 100	> 32	
CN(CCO)C(=O)c1n[nH]c2c1CN(C(=O)c1cc3c(Cl)c(F)ccc3[nH]1)CC2 [Example 51, 5-(4-chloro-5-fluoro-1H-indole-2-carbonyl)-N-(2-hydroxyethyl)-N-methyl-1H,4H,5H,6H,7H-pyrazolo[4,3-c]pyridine-3-carboxamide]	< 1	< 5	> 100	
CN(CCO)C(=O)c1n[nH]c2c1CN(C(=O)c1cc3c(F)c(F)ccc3[nH]1)CC2 [Example 52, 5-(4,5-difluoro-1H-indole-2-carbonyl)-N-(2-hydroxyethyl)-N-methyl-1H,4H,5H,6H,7H-pyrazolo[4,3-c]pyridine-3-carboxamide]	< 1	< 5	> 100	
CN(CCO)C(=O)c1n[nH]c2c1CN(C(=O)c1cc3c(F)ccc(F)c3[nH]1)CC2 [Example 53, 5-(4,7-difluoro-1H-indole-2-carbonyl)-N-(2-hydroxyethyl)-N-methyl-1H,4H,5H,6H,7H-pyrazolo[4,3-c]pyridine-3-carboxamide]	< 1	< 5	> 100	
COCCN(C)C(=O)c1n[nH]c2c1CN(C(=O)c1cc3ccccc3[nH]1)CC2 [Example 54, 5-(1H-indole-2-carbonyl)-N-(2-methoxyethyl)-N-methyl-1H,4H,5H,6H,7H-pyrazolo[4,3-c]pyridine-3-carboxamide]	< 1	< 5	> 100	
Cc1cccc2[nH]c(C(=O)N3CCc4[nH]nc(C(=O)N(C)OCCOP(=O)(N[C@@H](C)C(=O)OC(C)C)Oc5ccccc5)c4C3)cc12 (stereo partly drawn) [Example 55, propan-2-yl (2S)-2-({[2-({N-methyl-1-[5-(4-methyl-1H-indole-2-carbonyl)-1H,4H,5H,6H,7H-pyrazolo[4,3-c]pyridin-3-yl]formamido}oxy)ethoxy](phenoxy)phosphoryl}amino)propanoate]		< 5	> 32	< 1
CC(C)OC(=O)[C@H](C)NP(=O)(OCCON(C)C(=O)c1n[nH]c2c1CN(C(=O)c1cc3c(Cl)cccc3[nH]1)CC2)Oc1ccccc1 (stereo partly drawn) [Example 56, propan-2-yl (2S)-2-({[2-({1-[5-(4-chloro-1H-indole-2-carbonyl)-1H,4H,5H,6H,7H-pyrazolo[4,3-c]pyridin-3-yl]-N-methylformamido}oxy)ethoxy](phenoxy)phosphoryl}amino)propanoate]		< 5	> 32	< 1
CN(CCO)C(=O)c1n[nH]c2c1CN(C(=O)c1cc3ccc(Cl)cc3[nH]1)CC2 [Example 57, 5-(6-chloro-1H-indole-2-carbonyl)-N-(2-hydroxyethyl)-N-methyl-1H,4H,5H,6H,7H-pyrazolo[4,3-c]pyridine-3-carboxamide]	< 1	< 5	> 100	
